Results taken from US20050208496A1, “Methods of testing for bronchial asthma or chronic obstructive pulmonary disease” (Genox Research, Inc., priority 2002, published 2005).

Tested on: mouse counterpart genes
Assay: Mouse GeneChip (MG-U74A to MG-U74C) analysis of lung and trachea of the OVA antigen-exposed bronchial hypersensitivity model, S-Sal group versus S-OVA group
Format: in vivo
Conditions: S-Sal vs S-OVA group

ovalbumin [OVA antigen, ovalbumin antigen used for sensitization and inhalation to induce bronchial hypersensitivity in mice]
Fold Change, myxovirus (influenza virus) resistance 1 (mouse Probe ID 98417_at) (1st, P/A: A): 1.1 | Fold Change, myxovirus (influenza virus) resistance 2 (mouse Probe ID 102699_at) (1st, P/A: A): 1.2 | Fold Change, myxovirus (influenza virus) resistance 1 (mouse Probe ID 98417_at) (2nd, P/A: A): 2.2 | Fold Change, myxovirus (influenza virus) resistance 2 (mouse Probe ID 102699_at) (2nd, P/A: P): 0.909 | Fold Change, myxovirus (influenza virus) resistance 1 (mouse Probe ID 98417_at) (3rd, P/A: A): 3 | Fold Change, myxovirus (influenza virus) resistance 2 (mouse Probe ID 102699_at) (3rd, P/A: A): 1.3
